The record followed here is ChEMBL document CHEMBL1125997 (Bioorg Med Chem Lett, 1991).

For the test, the species on record is Cavia porcellus. Kind of test: Inhibition of histamine-inducedcontraction of the isolated guinea-pig ileum. The conditions noted are these: read-out: pA2 (converted). It counts as functional.
As to `CC(C)(C)c1ccc([C@@H](O)CCCN2CCC(C(O)(c3ccccc3)c3ccccc3)CC2)cc1`, the Kb was 19.1 nM.

Turning to `CC(C)(C)c1ccc([C@H](O)CCCN2CCC(C(O)(c3ccccc3)c3ccccc3)CC2)cc1` [R-TERFENADINE], the Kb was 24.5 nM.

`CC(C)(C)c1ccc(C(O)CCCN2CCC(C(O)(c3ccccc3)c3ccccc3)CC2)cc1` (stereo not drawn) [TERFENADINE]: the Kb is 22.4 nM.
